Experimental data as given in paper PMC7855449 (European journal of medicinal chemistry, 2020).

Assays:
[1] = reported for 1a at 10 mg/kg, oral; cited from earlier work
[2] = Pharmacokinetic studies in mice; type: in vivo, female CD-1 mice; conditions: i.p. exposure corrected for PPB
[3] = system: patient-derived HGSOC tumor spheroids; assay: Patient derived spheroid assay with Taxol; type: cell-based

Row | Compound | AUC0-∞ [1] [µM·h] | unbound drug AUC0-7h obs [2] [µM·h] | single agent toxicity [3]
1 | CS(=O)(=O)N1CCN(C(=O)c2cnc3ccc(F)cc3c2-c2ccc(C3(C#N)CC3)cc2)CC1 [Compound 1a] | 14.6 | – | –
2 | CC(Sc1nc2nn(C3COC3)cc2c(=O)n1-c1ccccc1)c1ccccc1 (centres unmarked) [Compound 68, 2-(oxetan-3-yl)-5-phenyl-6-((1-phenylethyl)thio)-2H-pyrazolo[3,4-d]pyrimidin-4(5H)-one] | – | 0.6 | –
3 | CC(Sc1nc2nn(C3COC3)cc2c(=O)n1-c1ccccc1)c1ccccn1 (centres unmarked) [Compound 69, 2-(oxetan-3-yl)-5-phenyl-6-((1-(pyridin-2-yl)ethyl)thio)-2H-pyrazolo[3,4-d]pyrimidin-4(5H)-one] | – | 1.1 | no single agent toxicity
4 | CC(Sc1nc2nn(C3(C)COC3)cc2c(=O)n1-c1ccccc1)c1ccccc1 (centres unmarked) [Compound 74, 2-(3-methyloxetan-3-yl)-5-phenyl-6-((1-phenylethyl)thio)-2H-pyrazolo[3,4-d]pyrimidin-4(5H)-one] | – | 0.5 | –
